Measurements reported in paper PMC11227574, “Synthesis, biological evaluation, molecular docking, and MD simulation of novel 2,4-disubstituted quinazoline derivatives as selective butyrylcholinesterase inhibitors and antioxidant agents” (Scientific Reports, 2024).

Columns and labels:
[1] = molecular target: T1, eelAChE (acetylcholinesterase from the electric eel) (Electrophorus electricus, UniProt O42275); experiment: biochemical; conditions: for IC50: mean ± SD of three independent experiments; for inhibition at 50 µM: read-out: eelAChE: % inhibition
T1 construct: purchased Sigma Aldrich
T1 sequence (O42275 24-633): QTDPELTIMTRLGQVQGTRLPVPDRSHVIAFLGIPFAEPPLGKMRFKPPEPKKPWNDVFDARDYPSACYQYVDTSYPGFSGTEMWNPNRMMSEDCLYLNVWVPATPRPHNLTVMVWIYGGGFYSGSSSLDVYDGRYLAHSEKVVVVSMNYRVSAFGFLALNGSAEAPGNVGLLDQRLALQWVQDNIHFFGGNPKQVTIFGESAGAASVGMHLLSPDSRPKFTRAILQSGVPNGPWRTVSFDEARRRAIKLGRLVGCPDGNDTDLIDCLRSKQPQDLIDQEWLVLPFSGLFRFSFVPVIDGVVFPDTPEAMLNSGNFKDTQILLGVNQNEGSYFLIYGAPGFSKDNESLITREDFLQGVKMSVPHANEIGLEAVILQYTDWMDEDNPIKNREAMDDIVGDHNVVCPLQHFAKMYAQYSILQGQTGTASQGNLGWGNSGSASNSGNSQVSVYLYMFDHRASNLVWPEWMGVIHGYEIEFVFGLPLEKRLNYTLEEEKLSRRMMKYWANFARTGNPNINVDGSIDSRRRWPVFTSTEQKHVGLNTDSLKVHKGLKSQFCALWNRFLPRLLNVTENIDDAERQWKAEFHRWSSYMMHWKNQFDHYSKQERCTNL

DPPH antioxidant assay = conditions: DPPH 110 µM, 30 min incubation, 517 nm; read-out: DPPH scavenging EC50
Description: The DPPH method presents several advantages, such as low cost, ease of performing experiments, high reproducibility, applicability at room temperature, and automation possibilities. In contrast to other traditional antioxidant assays that require additional treatments of sample and reagents, such as high temperatures and/or oxygen supply, the DPPH method requires mild experimental conditions[35],[36]. These features have established it as a convenient and effective option for researchers in the evaluation of antioxidant properties. In this study, the antioxidant activities of the synthesized compounds 6a-j were assessed using the DPPH assay, and the obtained results are represented as EC50 values in Table 2. In this assay, quercetin was used as positive control to compare the antioxidant capacity of the tested compounds.
The antioxidant activity of the synthesized compounds were determined based on the DPPH method. 2,2-Diphenyl-1-picrylhydrazyl (DPPH) and quercetin were obtained from Sigma Aldrich company. In this assay, quercetin was used as the control compound. Initially, stock solutions of the tested compounds with concentration of 40 mM were prepared in dimethyl sulfoxide (DMSO) solvent, and then the necessary dilutions were made in methanol to prepare the required concentrations ranging from 25 to 400 µM. This test was conducted in 96-well plates. Each well contained 180 μL of DPPH (110 μM) and 20 μL of different concentrations of the tested compounds, which were incubated for 30 min under dark condition. Then, the absorbance changes were measured at a wavelength of 517 nm using the Synergy HTX Multi-Mode Reader-BioTek. EC50 values for the compounds whose free radical trapping percentage was more than 50% at a concentration of 400 µM were obtained using CurveExpert software. Experiments were repeated three times for each concentration and the results were reported as the mean (m) ± standard deviation (SD).

[2] = molecular target: eqBuChE (butyrylcholinesterase from equine serum) (Equus caballus, UniProt P81908); experiment: biochemical; assay type: biochemical; conditions: for IC50: mean ± SD of three independent experiments; for inhibition at 50 µM: read-out: eqBuChE: % inhibition; for Selectivity index to BuChE (SI): IC50 for AChE/ IC50 for BuChE
Chain of eqBuChE (butyrylcholinesterase from equine serum) (P81908 whole entry): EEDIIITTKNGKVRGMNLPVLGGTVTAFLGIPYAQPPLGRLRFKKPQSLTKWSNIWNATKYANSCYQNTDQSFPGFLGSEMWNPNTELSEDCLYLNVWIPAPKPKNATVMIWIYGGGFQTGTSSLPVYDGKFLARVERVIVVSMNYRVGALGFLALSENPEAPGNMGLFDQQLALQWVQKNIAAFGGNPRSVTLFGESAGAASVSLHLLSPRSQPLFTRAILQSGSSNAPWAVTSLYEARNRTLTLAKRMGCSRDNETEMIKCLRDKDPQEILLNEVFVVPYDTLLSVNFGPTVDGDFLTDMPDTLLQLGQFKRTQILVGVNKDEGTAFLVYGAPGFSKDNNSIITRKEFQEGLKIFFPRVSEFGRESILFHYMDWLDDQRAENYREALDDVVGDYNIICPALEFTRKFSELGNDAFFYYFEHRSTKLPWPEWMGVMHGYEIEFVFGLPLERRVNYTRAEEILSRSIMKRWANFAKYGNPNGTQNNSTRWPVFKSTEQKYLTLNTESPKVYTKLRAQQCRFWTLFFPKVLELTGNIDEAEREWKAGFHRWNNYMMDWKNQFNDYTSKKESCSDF

eelAChE = molecular target: T2, eelAChE (Electrophorus electricus, UniProt O42275); experiment: Kinetic study of eelAChE inhibition (Lineweaver-Burk plot); assay type: biochemical, electric eel; conditions: inhibitor 5, 10, 20, 40, and 80 µM
T2 construct: purchased Sigma Aldrich
T2 sequence (O42275 24-633): as the sequence (O42275 24-633) above
Method: (§1) Kinetic study was performed to investigate the inhibition mechanism of eelAChE and eqBuChE using graphical analysis of the reciprocal Lineweaver–Burk plot. […] The kinetic studies were performed in the absence (control) and presence of different concentrations of compound 6h (5, 10, 20, 40, and 80 μM) for eelAChE and different concentrations of compound 6f (0.5, 1, 5, 10, and 20 μM) for eqBuChE. The control wells contained no concentration of 6h and 6f as inhibitors.
(§2) The initial velocity (V) of the substrates hydrolysis was measured at different concentrations of acetylthiocholine iodide (ATCI) or butyrylthiocholine iodide (BTCI) (1.7–20 mM), in the absence (control) and presence of different concentrations of the compound 6h (5, 10, 20, 40, and 80 μM) for AChE and different concentrations of compound 6f (0.5, 1, 5, 10, and 20 μM) for BuChE. Then, the double reciprocal plot of 1/V versus 1/S was drawn to determine the inhibition type of AChE and BuChE. Data analysis was performed using Microsoft Office Excel 2016.

eqBuChE = eqBuChE (Equus caballus, UniProt P81908); experiment: Kinetic study of eqBuChE inhibition (Lineweaver-Burk plot); assay type: biochemical, equine; conditions: inhibitor 0.5, 1, 5, 10, and 20 µM
Chain of eqBuChE (P81908 whole entry): as the sequence (P81908 whole entry) above
Method: as §1, §2

SMILES	IC50 [1]	inhibition at 50 µM [1]	EC50 (DPPH antioxidant assay)	IC50 [2]	inhibition at 50 µM [2]	Selectivity index to BuChE (SI) [2]	Inhibition type of eelAChE (eelAChE)	Inhibition type of eqBuChE (eqBuChE)	eqBuChE inhibitory activity, times more active than donepezil [2]
COc1ccc(Cl)cc1Nc1nc(Nc2cc(Cl)ccc2OC)c2ccccc2n1 [Compound 6i, N^2, N^4-bis(5-chloro-2-methoxyphenyl)quinazoline-2,4-diamine]	> 50 µM	13.7 ± 1.94%	> 400 µM	> 50 µM	26.6 ± 3.19%	–	–	–	–
Cc1ccc(O)c(Nc2nc(Nc3cc(C)ccc3O)c3ccccc3n2)c1 [Compound 6j, 2'-(quinazoline-2,4-diylbis(azanediyl))bis(4-methylphenol)]	> 50 µM	45.2 ± 2.91%	23.2 µM	3.65 µM	91.6 ± 3.26%	> 13.6	–	–	–
COc1ccc(Nc2nc(Nc3ccc(OC)cc3)c3ccccc3n2)cc1 [Compound 6g, N^2, N^4-bis(4-methoxyphenyl)quinazoline-2,4-diamine]	> 50 µM	11 ± 4.64%	> 400 µM	48.3 µM	51.5 ± 3.25%	–	–	–	–
Brc1ccccc1Nc1nc(Nc2ccccc2Br)c2ccccc2n1 [Compound 6a, N^2, N^4-bis(2-bromophenyl) quinazoline-2,4-diamine]	> 50 µM	12.4 ± 2.74%	> 400 µM	> 50 µM	30.6 ± 2.15%	–	–	–	–
Brc1cccc(Nc2nc(Nc3cccc(Br)c3)c3ccccc3n2)c1 [Compound 6d, N^2,N^4-bis(3-bromophenyl)quinazoline-2,4-diamine]	> 50 µM	23.5 ± 1.03%	> 400 µM	41.7 µM	56.1 ± 4.17%	–	–	–	–
FC(F)(F)c1cccc(Nc2nc(Nc3cccc(C(F)(F)F)c3)c3ccccc3n2)c1 [Compound 6e, N^2, N^4-bis(3-(trifluoromethyl)phenyl)quinazoline-2,4-diamine]	> 50 µM	16.5 ± 3.05%	> 400 µM	43.5 µM	58.8 ± 1.37%	–	–	–	–
COc1ccc(Nc2nc(Nc3ccc(OC)cc3OC)c3ccccc3n2)c(OC)c1 [Compound 6h, N^2, N^4-bis(2,4-dimethoxyphenyl)quinazoline-2,4-diamine]	47.6 µM	52.4 ± 2.33%	> 400 µM	6.74 µM	87.5 ± 3.08%	7.1	mixed-type inhibition	–	–
O=c1c(O)c(-c2ccc(O)c(O)c2)oc2cc(O)cc(O)c12 [Quercetin, quercetin, reference compound]	–	–	8.9 µM	–	–	–	–	–	–
Nc1ccccc1Nc1nc(Nc2ccccc2N)c2ccccc2n1 [Compound 6c, N^1, N^1′-(quinazoline-2,4-diyl)bis(benzene-1,2-diamine)]	> 50 µM	6.15 ± 3.15%	28.4 µM	26.9 µM	64.1 ± 2.32%	–	–	–	–
Cc1ccc(Nc2nc(Nc3ccc(C)cc3)c3ccccc3n2)cc1 [Compound 6f, N^2, N^4-di-p-tolylquinazoline-2,4-diamine]	> 50 µM	40.3 ± 3.55%	> 400 µM	0.52 µM	96.7 ± 2.57%	> 96	–	mixed-type inhibition	20 times
Oc1ccccc1Nc1nc(Nc2ccccc2O)c2ccccc2n1 [Compound 6b, 2,2′-(quinazoline-2,4-diylbis(azanediyl))diphenol]	> 50 µM	8.7 ± 1.15%	26.1 µM	37.2 µM	52.3 ± 2.17%	–	–	–	–
